Assay results: US9359404B2, “Methods and products for treating preeclampsia and modulating blood pressure” (Scott & White Healthcare, priority 2011, dated 2016)
Ends that are not written are not given here.

Experiments:
pregnant mice [1] = assay: Systolic blood pressure (tail-cuff plethysmography) in pregnant mice given TLR agonists with or without TPP; format: in vivo, C57BL/6 mice; details: pregnant mice treated with TLR agonist alone, day 17
Procedure: (§1) Experimental Design: C57BL/6 female mice were bred with male C57BL/6 mice. At day 13 mice were injected IP with vehicle, Poly I:C (SIGMA PO913 50 mg), CLO097 (Invivogen tlrl-C95-5), or R837 (Invivogen tlrl imq) with or without TPP (FRIMAVLAS (SEQ ID NO: 5). Mice were injected a total of 3 times, every other day. At day 18 mice were euthanized, uterus/pups, blood, blood vessels, and spleen were removed.
Blood Pressure: Systolic arterial blood pressure was measured by tail-cuff plethysmography. […] were trained for three days prior to data collection. Animals were warmed to 32° C. and measurements were taken using an IITC Model 59 amplifier (Woodland Hills, Calif.), a system which correlates well with telemetry measurements of systolic blood pressure.
Pregnant mice (P) were treated with one of three TLR agonists to induce a physiological condition which mimics preeclampsia. Poly I:C is a TLR3 agonist and is well established in inducing characteristics of preeclampsia in mice. R837 is a […] activator of TLR7 but not TLR8. Similar to Poly I:C R837 induces characteristics of preeclampsia in mice. CLO097 is a […] that activates TLR7 and TLR8. While CLO097 induces some of the characteristics of preeclampsia the response is somewhat muted. […] The blood pressure of each mouse was measured on day 17 following treatment.

[2] = tested on: splenic CLIP+γδ T and B cells; assay: Splenic CLIP+ γδ T cells and B cells after TLR3 or TLR7 activation in pregnant mice (flow cytometry); format: in vivo; details: for splenic CLIP+γδ T cells: pregnant mice treated with TLR agonist versus vehicle-treated pregnant controls
Excerpt: Next, it was important to determine whether this effect also happens in vivo. Therefore, we tested whether TLR activation via TLR3 or TLR7, which cause PE in mice only if they are pregnant, increases splenic CLIP+γδ T and B cells in mice.
It was shown that MHC class II engagement, in the absence of antigen receptor engagement, can lead to the death of APCs including B cells. Since TLR-mediated activation of B cells results in ectopic CLIP expression (FIGS. 11 and 12) we sought to determine whether CLIP serves as a negative regulator of B cell death. To test this mouse splenic B cells from C57B16 mice or CLIP KO mice were activated, with or without a TLR agonist, for 48 hrs. […] Splenocytes were analyzed by flow cytometry.

Aortic rings = assay: Vasodilation/endothelial function of aortic rings (isometric force transducer); format: in vivo; details: vessels of TLR agonist-treated pregnant mice, phenylephrine contraction, acetylcholine relaxation
Procedure: Experimental Design: Mice were treated as described in Example 1.
Vasodilation/Endothelial Function: Aortic rings were connected to an isometric force transducer in a custom-made 15-ml organ chamber filled with 37° C. physiological salt solution (119 mM NaCl, 4.7 mM KCl, 25 mM NaHCO3, 1.18 mM KH2PO4, 1.17 mM MgSO4-7H2O, 11.1 mM Dextrose, 2.5 mM CaCl2) with 95% O2-5% CO2. All experiments were performed in the presence of indomethacin […] to inhibit prostacyclin production by cyclooxygenase. Passive tension on the vessels was set at 400 mg based on previously generated length-tension curves, and isometric force generation was recorded continuously with a PowerLab system (AD Instruments, Colorado Springs, Colo.). After a 60-min equilibration period, vessels were contracted with phenylephrine […] and repeated until reproducible contractions were obtained. […] was administered to test the functional integrity of endothelium as measured by a relaxation response. Concentration-response curves were obtained in a half-log, cumulative fashion in response to acetylcholine (1 nM to […]) following contraction to an EC70 concentration of phenylephrine. Relaxation responses were expressed as percent relaxation from phenylephrine-induced contraction. […]

[3] = tested on: pregnant mice with PE induced by TLR3 or TLR7 activation; assay: Prevention of TLR3/TLR7-induced PE in pregnant mice, daily TPP gestational days 13-17; format: in vivo
Excerpt: FIG. 14 is a series of graphs depicting results from the daily administration of the CLIP-displacing peptide TPP. Daily administration of the CLIP-displacing peptide TPP (“Pep”-gestational days 13-17) prevented the development of hypertension, endothelial dysfunction, proteinuria, fetal demise, increased γδT cells, and decreased regulatory T cells in pregnant (P) mice treated with the TLR7 agonist R837 (PR mice) or the TLR3 agonist poly I:C (PPIC mice) on gestational days 13, 15, and 17.
TPP was utilized to displace CLIP on immune cells in mice during pregnancy.

pregnant mice [4] = assay: Total number of pups and malformed pups at day 18; format: in vivo, C57BL/6 mice; details: day 18, versus normal pregnancies or pregnancies treated with TLR agonists
Procedure: as §1
The number of pups and malformed pups was relatively consistent across all groups at this time point.

[5] = tested on: CLIP on the surface of B220 cells; assay: Immune cell markers on splenocytes: CLIP on B220 cells; format: in vivo; details: pregnant mice, Poly I:C alone
Procedure: Experimental Design: Mice were treated as described in Example 1. Splenocytes were isolated and stained for CD3, CD4, CD8, CD11b, Ly6G/C, CD25, FoxP3, CD19, B220, CD5, CLIP, and Gamma Delta TCR.
FIG. 9 is a set of graphs that depicts the removal of all CLIP (9A) versus bright CLIP (9B) and FIG. 9C from the surface of B220 cells. […] TLR agonists include CLO097; R837, and Poly I:C. FIG. 9C depicts the percentage of CLIP+cells resulting from Poly I:C stimulation with and without TPP.

| Compound | blood pressure (pregnant mice [1]) | splenic CLIP+γδ T cells [2] | relaxation response (Aortic rings) | safety, side effects on the mother or the pups [3] | number of malformed pups (pregnant mice [4]) | total number of pups (pregnant mice [4]) | B cell death (splenic B cells) ([2]; PE mice versus normal pregnancy) | CLIP+ B cells [5] |
| --- | --- | --- | --- | --- | --- | --- | --- | --- |
| CC(C)Cn1cnc2c(N)nc3ccccc3c21 [R837] | significantly increased blood pressure | increased significantly | relaxation response is delayed | – | – | – | – | – |
| FRIMAVLAS [TPP, FRIMAVLAS] | – | – | – | safe in mice and has no side effects on the mother or the pups | caused no increase | caused no increase | – | – |
| Poly I:C | significantly increased blood pressure | increased significantly | relaxation response is delayed | – | – | – | did not experience the increase in B cell death | significant increase |
